# Measurements published in patent publication US20080200393A1, “Method and Composition For Treating Angiogenesis and For Preventing Cancer Progression and Metastasis Comprising a Prostate Secretory Protein (Psp94) Family Member” (Ambrillia Biopharma Inc., priority 2004, published 2008).
# Where no end group is shown, it is not given here.
# Assays:
# U-87 cells = assay: U-87 cell migration on hyaluronic acid; assay type: cell-based; conditions: 300 ug/ml, 48 hrs pretreatment; HA-coated filters, 2 hours
# Description: The biological activity of a desired polypeptide may further be determined using migration assays. U-87 cells are treated with a polypeptide of the present invention (e.g., any PCK3145 derivative, fragment, analog, such as for example, any one of or combinations of SEQ ID NOs.: 9 to 98). The treated cells are trypsinised, counted, and seeded on HA-coated filters inserted in modified Boyden Chambers as described herein or in the art. Cell migration is allowed to proceed for 2 hours at 37° C. Filters are then stained for cells that have migrated through the filter. A decreased basal U-87 cell migration observed in cells treated with a polypeptide of the present invention is indicative of a biologically active polypeptide (i.e., a biologically active PCK3145 derivative, fragment, analog).
# Migration/invasion of cancer cells is a key event in tumor metastasis. In vitro, this process can be reconstituted by plating cells onto ECM-coated filters inserted in modified Boyden chemotactic chambers. The effect of the PCK3145 derivative can be monitored by the number of cells that had migrated comparatively to untreated control cells. […] U-87 cells were treated with the PCK3145 derivative (300 ug/ml, 48 hrs), trypsinised, counted, and seeded on HA-coated filters inserted in modified Boyden Chambers. […]
# MMP-9 = assay: Gelatin zymography of MatLyLu cell culture media; assay type: cell-based; conditions: MatLyLu cells, 500 ug/ml and 1 mg/ml, 50 ug/ml collagen type-I, serum free, 72 hrs
# Description: Zymography. Zymography is a technique generally used to analyze the activity of matrix metalloproteinases (MMPs) in biological samples. It involves the electrophoretic separation of proteins under denaturing (Sodium Dodecyl Sulfate (SDS)) but non-reducing conditions through a polyacrylamide gel containing gelatin (for example, 10% gel containing 1 mg/ml gelatin for MMP-9 and MMP-2 assays). The resolved proteins are re-natured by exchanging SDS with a non-ionic detergent such as Triton X-100 and the gel is incubated in an incubation buffer for activation of MMP-2 and MMP-9 (for example at 37° C. for 18 hrs). The gel is stained with Coomassie blue and the MMP-2 and MMP-9 bands may be visualized as clear bands against a blue background (i.e., the MMPs degrade the gelatin and are visualized as clear bands; pro MMP-2 is 68 kDa and pro-MMP-9 is 92 kDa). These bands can be quantified using densitometry. For example, prior to stimulation, quiescent HUVEC were serum-starved for 16 h in the presence or absence of PCK3145 or PD98059 and then stimulated with VEGF. […] Gelatinolytic activity was detected as unstained bands on a blue background. […]
# The media were collected after 72 hours of exposure to the PCK3145 derivative and subjected to gelatin zymography. […] The band intensities were determined using the Image Quant software (version 5.0) from molecular Dynamics. […]
sequence,measurement,setting,value
"EWQTDNCETCTCYET (cysteine pairing not given here) [PCK3145 derivative, PCK3145 derivative with acetylaminomethyl groups on the three cysteines]",decrease of basal U-87 cell migration,U-87 cells,approximately 3 fold
same,MMP-9 secreted in the cell culture media (zymography),MMP-9,dose-dependent reduction
